Source: patent US20200171005A9, “Heterobifunctional Pan-Selectin Antagonists Having a Triazole Linker” (GlycoMimetics, Inc., priority 2015, published 2020)

Columns and labels:
[1] = biological target: T1, P-selectin (P-selectin/IgG) (Homo sapiens, UniProt P16109); test: Cell-free P-selectin ligand competitive binding assay (sLe^a-PAA); conditions: P-selectin/IgG coated plate, sLe^a-PAA streptavidin-POD complex, 25° C., 2 hours; read-out: IC50, Binding Affinity to P-Selectin Determined by Competitive Binding Assay
T1 sequence (P16109 42-771): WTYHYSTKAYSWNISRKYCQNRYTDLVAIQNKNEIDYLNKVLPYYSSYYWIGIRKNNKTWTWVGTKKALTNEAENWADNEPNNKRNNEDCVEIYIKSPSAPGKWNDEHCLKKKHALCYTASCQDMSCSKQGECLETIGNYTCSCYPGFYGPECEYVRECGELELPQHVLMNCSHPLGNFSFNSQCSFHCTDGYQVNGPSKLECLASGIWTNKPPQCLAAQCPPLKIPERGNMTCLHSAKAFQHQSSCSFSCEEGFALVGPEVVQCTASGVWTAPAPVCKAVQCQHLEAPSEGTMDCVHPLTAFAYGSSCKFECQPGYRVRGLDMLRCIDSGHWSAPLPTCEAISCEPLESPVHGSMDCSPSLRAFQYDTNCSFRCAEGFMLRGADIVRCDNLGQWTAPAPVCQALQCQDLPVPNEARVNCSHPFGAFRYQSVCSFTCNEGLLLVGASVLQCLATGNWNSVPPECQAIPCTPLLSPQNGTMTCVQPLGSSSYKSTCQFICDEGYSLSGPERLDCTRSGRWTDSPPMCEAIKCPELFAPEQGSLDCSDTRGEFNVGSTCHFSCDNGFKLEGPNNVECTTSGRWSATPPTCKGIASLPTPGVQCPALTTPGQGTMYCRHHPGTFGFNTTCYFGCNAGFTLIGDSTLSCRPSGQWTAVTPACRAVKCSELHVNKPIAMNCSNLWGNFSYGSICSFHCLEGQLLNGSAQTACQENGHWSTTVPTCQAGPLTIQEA
Method: The cell-free P-selectin ligand binding assay was adapted from Weitz-Schmidt et al (G. Weitz-Schmidt, D. Stokmaier, G. Scheel, N. E. Nifant'ev, A. B. Tuzikov, N. V. Bovin, Anal Biochem 1996, 238, 184-190). A MaxiSorp 96-well flat bottom microtiter plate purchased from Nalge Nunc International (Penfield, N.Y., USA) was coated with P-selectin/IgG by incubation with 100 μL/well of the purified protein at a concentration of 3 μg/ml in 10 mM HEPES-NaOH pH 7.4, 150 mM NaCl, 1 mM CaCl2 (HAB-Ca^+). After an overnight incubation at 4° C., the plate was washed three times with HAB-Ca^+ followed by a 2 hour incubation with 200 μL/well of a solution of 3% BSA in HAB-Ca^+ at room temperature to block nonspecific binding. During this incubation, inhibitory test compounds, diluted in HAB-Ca^+, were titrated by a twofold serial and mixed with an equal volume of 0.2 μg/ml of a preformed complex of a biotinylated sialyl Lewis' polyacrylamide polymer (sLe^a-PAA) purchased form GlycoTech Inc. (Gaithsburg, Md., USA) and horseradish peroxidase-labeled streptavidin (streptavidin-POD) purchased from Roche (Rotkreuz, Switzerland). After blocking, the microtiter plate was washed three times with HAB-Ca^+ and 100 μL/well of the inhibitor dilution series premixed with sLe^a-PAA streptavidin-POD complex was transferred to the different wells of the plate. The binding reaction was allowed to proceed at 25° C. After 2 hours, the plate was washed twice with HAB-Ca^+, and 100 μL/well of ABTS (2,2′-azino-bis[3-ethylbenzthiazoline-6-sulfonic acid]) substrate reagent purchased from Invitrogen (Paisley, UK) was added to each well. Adding 100 μL/well of 2% oxalic acid stopped the colorimetric reaction was after 5 minutes. The optical density was determined at […] (SpectraMax). The concentration of antagonist required to inhibit binding by 50% was determined and is reported as the IC50 value.

[2] = biological target: T2, E-selectin (E-selectinLEC2 construct) (Homo sapiens, UniProt P16581); test: Microscale Thermophoresis (MST) affinity assay for E-selectin; conditions: labeled E-selectinLEC2, HEPES buffer pH 7.4, 1 mM CaCl2, 25° C.; read-out: Binding Affinity (KD) to E-Selectin Determined by MST
T2 construct: a construct consisting of the lectin domain, the EGF like domain, and the first two short consensus repeats (E-selectinLEC2)
T2 sequence (P16581 22-301 limits assumed): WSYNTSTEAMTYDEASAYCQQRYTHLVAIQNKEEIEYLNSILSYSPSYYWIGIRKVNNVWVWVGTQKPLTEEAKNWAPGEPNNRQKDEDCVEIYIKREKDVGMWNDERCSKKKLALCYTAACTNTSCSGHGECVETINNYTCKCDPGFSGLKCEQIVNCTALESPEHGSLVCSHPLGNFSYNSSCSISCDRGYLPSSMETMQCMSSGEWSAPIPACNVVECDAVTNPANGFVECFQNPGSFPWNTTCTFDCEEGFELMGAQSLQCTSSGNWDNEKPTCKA
Method: For E-selectin, a construct consisting of the lectin domain, the EGF like domain, and the first two short consensus repeats (E-selectinLEC2) was labeled using the amine reactive protein labeling kit BLUE-NHS from NanoTemper Technologies GmbH (Munich, Germany).
The Microscale Thermophoresis (MST) experiments were carried out in a HEPES buffer adjusted to pH 7.4 containing 150 mM NaCl, 1 mM CaCl2 and 0.05% Tween 20 at a temperature of 25° C. with 50% LED power, 50% laser power, laser on time of 30 seconds, and laser off time of 5 seconds with standard treated capillaries. A fixed concentration of the labeled E-selectinLEC2 protein was incubated for 20 minutes with a 15-datapoint […] 1:1 dilution of ligand starting about 30 times above the expected KD. The observed data points were fitted using the single-site binding function of Alan Cooper, Tutorial Chemistry Texts, Vol 16: Biophysical Chemistry; Royal Society of Chemistry: Cambridge, 2004.

**Q.** How did the IC50 [1] turn out when `CCC1CC(C(=O)NCCCc2cn(CCCCC(=O)Nc3cc(S(=O)(=O)O)cc4cc(S(=O)(=O)O)cc(S(=O)(=O)O)c34)nn2)CC(OC2OC(CO)C(O)C(OC(CC3CCCCC3)C(=O)O)C2OC(=O)c2ccccc2)C1OC1OC(C)C(O)C(O)C1O` (centres unmarked) [Compound 15c] was run?
**A.** The IC50 was 210 µM.

**Q.** What about the Kd [2] of the same compound?
**A.** Its Kd is 1.2 µM.

**Q.** What does the source list for `CCC1CC(C(=O)NCCCc2cn(CCC(=O)Nc3cc(S(=O)(=O)O)cc4cc(S(=O)(=O)O)cc(S(=O)(=O)O)c34)nn2)CC(OC2OC(CO)C(O)C(OC(CC3CCCCC3)C(=O)O)C2OC(=O)c2ccccc2)C1OC1OC(C)C(O)C(O)C1O` (centres unmarked) [Compound 15a]?
**A.** IC50 [1]: 94 µM; Kd [2]: 1.5 µM

**Q.** With `CCC1CC(C(=O)NCCCc2cn(CCCC(=O)Nc3cc(S(=O)(=O)O)cc4cc(S(=O)(=O)O)cc(S(=O)(=O)O)c34)nn2)CC(OC2OC(CO)C(O)C(OC(CC3CCCCC3)C(=O)O)C2OC(=O)c2ccccc2)C1OC1OC(C)C(O)C(O)C1O` (centres unmarked) [Compound 15b] as the compound, how does the IC50 [1] read?
**A.** Its IC50 is 82 µM.

**Q.** And the Kd [2]?
**A.** The Kd was 0.97 µM.

**Q.** With `CC1CC(C(=O)NCCCc2cn(CCC(=O)Nc3cc(S(=O)(=O)O)cc4cc(S(=O)(=O)O)cc(S(=O)(=O)O)c34)nn2)CC(OC2OC(CO)C(O)C(OC(CC3CCCCC3)C(=O)O)C2OC(=O)c2ccccc2)C1OC1OC(C)C(O)C(O)C1O` (centres unmarked) [Compound 17] as the compound, how does the IC50 [1] read?
**A.** Its IC50 is 185 µM.

**Q.** And the Kd [2]?
**A.** The Kd was 3 µM.
